Data on eleven compounds can be found in ChEMBL document CHEMBL1201862, “PubChem BioAssay data set” (2004).

What all share (test): NCI anticancer screen, dose series, 48 h
The test system of test [1] is 786-0.
The test system of test [2] is NCI-H23.
Test [3] has as its system SN12C.
The test system of test [4] is MDA-MB-435.
For test [5], the system named is HCT-15.
Test [6] has as its system T47D.
Test [7] deals with COLO 205.
Test [8] relates to NCI-H522.
Test [9] concerns DU-145.
The subject of test [10] is SNB-19.
The test system of test [11] is OVCAR-3.
Test [12] concerns OVCAR-8.
The test system of test [13] is MDA-N.
Test [14] relates to SK-OV-3.
For test [15], the system named is IGROV-1.
Test [16] relates to OVCAR-4.
For test [17], the system named is Malme-3M.
In test [18] the test system is HCT-116.
Test [19] deals with UO-31.
Test [20] deals with SR.

Each structure is given as a SMILES string.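 Method: 48-hour compound exposure of cells in 96-well plates, five concentrations, linear interpolation of endpoints. The concentration for 50% growth inhibition is given as GI50.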 Activity calls are given as the source filed them. No stated cut-off is given here; in the data, active = GI50 up to about 1.1 µM and inactive = higher.

As for `CC(=O)O[C@@H]1C[C@@]23C[C@@]24CC[C@H](OC2OCC(O)C(O)C2O)C(C)(C)[C@@H]4CC=C3[C@]2(C)C[C@@H]3OC4(C[C@@H](C)[C@@H]3[C@@]12C)OC(O)[C@@]1(C)O[C@@H]41` (some centres undefined), the GI50 is 25.2 µM (inactive) in [1]; 34 µM (inactive) in test [2]; 31.5 µM (inactive) in test [3]; 32.4 µM (inactive) in test [4]; 31.6 µM in test [5]; 20.8 µM (inactive) in [6]. Moreover, the GI50 is 21.3 µM (inactive) in test [7]; 23 µM (inactive) in test [8]; 43.2 µM (inactive) in test [9]; 75.2 µM (inactive) in test [10]; 12.1 µM (inactive) in [11]; 41.7 µM (inactive) in test [12]. Besides, the GI50 in test [13] was 30.9 µM (inactive); in test [14], 30.4 µM (inactive); in test [15], 36.5 µM (inactive); in test [16], 48.4 µM (inactive); in test [17] it was 33.2 µM (inactive); in [18], 19.4 µM (inactive). Also, in test [19], the GI50 is 41.8 µM (inactive).

On to `COC(=O)N1C[C@@]2(C=CC3(CC2)OCCO3)c2ccccc21`, for which the GI50 in test [1] is > 100 µM (inactive); in test [2], 95.7 µM (inactive); in test [3] it was > 100 µM (inactive); in [4] it was 23.7 µM (inactive); in [5] it was 57.3 µM; in test [6], > 100 µM (inactive). Also, the GI50 in test [7] was > 100 µM (inactive); in test [9] it was > 100 µM (inactive); in test [10], > 100 µM (inactive); in test [11] it was > 100 µM (inactive); in test [12] it was 39.5 µM (inactive); in test [13], 51.1 µM (inactive). Besides, the GI50 was > 100 µM (inactive) in test [14]; 49.1 µM (inactive) in [15]; > 100 µM (inactive) in [16]; > 100 µM (inactive) in [18]; 49.7 µM (inactive) in test [20]; > 100 µM (inactive) in test [19].

Regarding `CCOc1ccccc1/N=C\c1c2ccccc2cc2ccccc12`, the GI50 is 18.8 µM (inactive) in [1]; 17.3 µM (inactive) in test [2]; 22.4 µM (inactive) in [3]; 22.7 µM (inactive) in test [4]; 24.4 µM in test [5]; 18.9 µM (inactive) in test [6]. Moreover, the GI50 in test [7] was 32.3 µM (inactive); in test [9], 22.1 µM (inactive); in test [10], 26.4 µM (inactive); in test [11] it was 24.7 µM (inactive); in [12], 23.8 µM (inactive); in test [13], 21.9 µM (inactive). Also, the GI50 is 22.3 µM (inactive) in [14]; 22.8 µM (inactive) in test [15]; 24.3 µM (inactive) in [16]; 18.4 µM (inactive) in test [18]; 15.2 µM (inactive) in test [20]; 18.6 µM (inactive) in test [19].

Regarding `CCC(C#N)NCc1ccc(CNC(C#N)CC)cc1` (centres undefined), the GI50 in test [1] was > 100 µM (inactive); in test [2] it was > 100 µM (inactive); in test [3] it was > 100 µM (inactive); in test [4], > 100 µM (inactive); in test [5], greater than 100 µM; in test [6] it was > 100 µM (inactive). Besides, the GI50 in test [7], in [8], in test [9], in test [10], in [11] and in test [12] was > 100 µM (inactive) throughout. The GI50 in test [13], in [14], in [15], in test [16], in test [17] and in [18] was > 100 µM (inactive) throughout. Further, the GI50 in test [19] is 95.7 µM (inactive).

Take `OC(C1CCCC1=N/N=C1/CCCC1C(O)(C(F)(F)Cl)C(F)(F)Cl)(C(F)(F)Cl)C(F)(F)Cl` (centres undefined): the GI50 in test [1] is > 10 µM (inactive); in test [2], > 10 µM (inactive); in test [3] it was > 10 µM (inactive); in test [4], > 10 µM (inactive); in test [5], greater than 10 µM; in test [6], > 10 µM (inactive). The GI50 in [7], in test [8], in test [9], in [10], in test [11] and in test [12] was > 10 µM (inactive) in each case. Besides, the GI50 in test [13], in test [14], in test [15], in test [16], in test [17] and in [18] was > 10 µM (inactive) each time.

In the case of `COc1cc2oc(-c3ccc4c(c3)OCO4)c(OC)c(=O)c2c(O)c1OC`, the GI50 was > 50 µM (inactive) in [1]; 35.6 µM (inactive) in test [2]; > 50 µM (inactive) in [3]; 26.9 µM (inactive) in test [4]; greater than 50 µM in test [5]; > 50 µM (inactive) in test [6]. Further, the GI50 in test [7], in test [8], in test [9], in [10], in [11] and in test [12] was > 50 µM (inactive) in each case. Moreover, the GI50 in test [13], in test [14], in test [15], in [16], in test [17] and in [18] was > 50 µM (inactive) in each case. The GI50 in [19] is > 50 µM (inactive).

As for `CC(=O)OCC1OC(Oc2cc(C)c(O)cc2C/C=C(\C)CC/C=C(\C)C[C@@H](C=C(C)C)OC(C)=O)C(O)C(OC(C)=O)C1OC(C)=O` (some centres undefined), the GI50 in test [1] is 39.1 µM (inactive); in test [2], 23.3 µM (inactive); in test [3], 20.2 µM (inactive); in test [4], 16.5 µM (inactive); in test [5], 16.3 µM; in test [6], 10.1 µM (inactive). Also, the GI50 in test [7] is 9.38 µM (inactive); in test [8], 17.1 µM (inactive); in [9], 28.6 µM (inactive); in test [10], > 50 µM (inactive); in test [11] it was 13.4 µM (inactive); in test [12] it was 16.1 µM (inactive). The GI50 in test [13] was 25.2 µM (inactive); in test [14], > 50 µM (inactive); in test [15] it was 33.6 µM (inactive); in test [16] it was 23.6 µM (inactive); in test [17], > 50 µM (inactive); in [18], 23.2 µM (inactive). Besides, the GI50 in test [19] is 18 µM (inactive).

`COc1cc2nc(Cl)nc(NS(=O)(=O)c3cc4ccccc4s3)c2cc1OC`: the GI50 in test [1] was 35.4 µM (inactive); in test [2], 25.7 µM (inactive); in test [3], 29.6 µM (inactive); in [4], 22.4 µM (inactive); in test [5], 36.3 µM; in test [6], 19.7 µM (inactive). The GI50 in test [7] is 38.1 µM (inactive); in test [8], 31.3 µM (inactive); in test [9], 21.3 µM (inactive); in test [10], 21 µM (inactive); in test [11] it was 19 µM (inactive); in test [12] it was 33 µM (inactive). Also, the GI50 in [14] is 28.1 µM (inactive); in test [15], 27 µM (inactive); in [16], 27.4 µM (inactive); in test [17] it was 32 µM (inactive); in [18] it was 30.2 µM (inactive); in test [20], 23.4 µM (inactive). In test [19], the GI50 was 16.4 µM (inactive).

For the compound `OC1CCCN(C2(c3cccs3)CCCCC2)C1` (centres undefined), the GI50 in test [1] is > 100 µM (inactive); in test [2], > 100 µM (inactive); in test [3] it was > 100 µM (inactive); in test [4], > 100 µM (inactive); in test [5] it was greater than 100 µM; in test [6], > 100 µM (inactive). Besides, the GI50 in test [7], in test [8], in test [9], in [11], in test [12] and in [13] was > 100 µM (inactive) in each case. Besides, the GI50 was > 100 µM (inactive) in test [14]; 97.5 µM (inactive) in [15]; > 100 µM (inactive) in test [16]; > 100 µM (inactive) in test [17]; > 100 µM (inactive) in test [18].

Consider `Oc1[nH]c(NCc2ccc(Cl)cc2)nc2ncnc1-2`, for which the GI50 was > 100 µM (inactive) in test [1]; > 100 µM (inactive) in [2]; > 100 µM (inactive) in [3]; > 100 µM (inactive) in test [4]; greater than 100 µM in test [5]; > 100 µM (inactive) in [6]. Moreover, the GI50 is > 100 µM (inactive) in test [7]; 30.3 µM (inactive) in test [8]; > 100 µM (inactive) in [9]; > 100 µM (inactive) in test [10]; > 100 µM (inactive) in test [11]; > 100 µM (inactive) in test [12]. The GI50 in test [13], in test [14], in test [15], in test [16], in test [17] and in test [18] was > 100 µM (inactive) in each case. In addition, the GI50 in test [19] was > 100 µM (inactive).

`O=C(NNCc1ccccc1O)c1ccccc1O`: the GI50 in [1] is 11 µM (inactive); in [2] it was 9.84 µM (inactive); in test [3], 4.03 µM (inactive); in test [4], 3.06 µM (inactive); in test [5] it was 1.19 µM; in test [6], 3.48 µM (inactive). Also, the GI50 in test [7] was 7.93 µM (inactive); in [8], 2.28 µM (inactive); in [9], 3.22 µM (inactive); in test [10], 36.6 µM (inactive); in test [11], 0.766 µM (active); in [12] it was 14.4 µM (inactive). Further, the GI50 in test [13] is 7.57 µM (inactive); in test [14] it was 7.71 µM (inactive); in test [15], 1.13 µM (inactive); in [16], 26 µM (inactive); in test [17] it was 15.1 µM (inactive); in test [18], 3.1 µM (inactive). In addition, the GI50 in [19] was 1.92 µM (inactive).
